Where a name gives a salt, the structure may show the parent alone.
Test system: ATF4 translation (ATF4 pathway), SH-SY5Y-ATF4-NanoLuc cells
Test: ATF4 cell based assay (ATF4 5'-UTR NanoLuc luciferase reporter, Thapsigargin induced cellular stress)
Settings: SH-SY5Y-ATF4-NanoLuc cells challenged with Thapsigargin for 14-18 hours; average of two or more experimental runs; read-out: average ATF4 pathway inhibitory activity (IC50)
Excerpt: The ATF4 reporter assay measures the effect of Thapsigargin induced cellular stress on ATF4 expression. For this reporter assay, a stable cell line was created by transfecting SH-SY5Y cells with a plasmid containing the NanoLuc® luciferase gene fused to the 5′-UTR of ATF4, under the control of the CMV promoter. The ATF4 5′-UTR contains two open reading frames which mediate the cellular stress-dependent translation of the reporter gene. Clones stably expressing the reporter construct were isolated and selected based on the luminescence response to thapsigargin and inhibition of this signal by test compounds. Briefly, SH-SY5Y-ATF4-NanoLuc cells were challenged with Thapsigargin for 14-18 hours to determine the stress effect with or without test compounds.
Cells were propagated in growth media consisting of 90% DMEM F12 (InVitrogen #11320-033), 10% Fetal Bovine Serum (Gibco #10438-026), 5 mM Glutamax (Gibco #35050-061), 5 mM Hepes, (Gibco #15630-080), and 0.5 mg/ml Geneticin (Gibco #10131-027). Cells were prepared for the assay by removing all media from cells, washing the plated cells with phosphate buffered saline, and detached by adding a solution comprised of 10% Tryple express solution (InVitrogen12604-021) and 90% enzyme-free cell dissociation buffer HANKS base (Gibco 13150-016). The trypsin was deactivated by adding assay media comprised of 90% phenol-red free DMEM F12 (InVitrogen, 11039), 10% Fetal Bovine Serum (Gibco #10438-026), (5 mM Glutamax (Gibco #35050-061), 5 mM Hepes, (Gibco #15630-080), and 0.5 mg/ml Geneticin (Gibco #10131-027). Suspended cells were spun down at 300 g for 5 min, the supernatant was removed and the cell pellet was suspended in warm media (30-37° C.) comprised as above at (1e6 cell/ml).
Assay plates were prepared by adding 250 nL of compound stock solution in 100% DMSO to each well, followed by dispensing 20 microliters/well cell suspension to deliver 15-20 k cell/well. Cells were incubated for 1 hour at 37° C. Then, 5 μL of 1.5 μM or 1 μM of Thapsigargin (final concentration: 200-300 nM) was added to each well of cells. Assay plates containing cells were incubated for 14-18 hours at 37° C.
The measurement of luciferase produced by the ATF4 constructs was measured as follows. Aliquots of the Nano-Glo reagent (Nano-Glo® Luciferase Assay Substrate, Promega, N113, Nano-Glo® Luciferase Assay Buffer, Promega, N112 (parts of Nano-Glo® Luciferase Assay System, N1150) were brought to room temperature, the substrate and buffer were mixed according to manufacturer's instructions. The cell plates were equilibrated to room temperature. 25 microliters/well of the mixed Nano-Glo reagent were dispensed into assay wells and pulse spun to settle contents and the plate was sealed with film. The plates were incubated at room temperature for 1 hour before detecting luminescence on an Envision plate reader.
Compounds of the invention are tested for activity against ATF4 translation in the above assay.

SMILES | IC50 [nM]
Cc1cc(OCCCN2CCC(CNC(=O)COc3ccc(Cl)cc3)C2)ccc1Cl (centres unmarked) [Example 57, N-((1-(3-(4-chloro-3-methylphenoxy)propyl)pyrrolidin-3-yl)methyl)-2-(4-chlorophenoxy)acetamide] | < 100
O=C(COc1ccc(Cl)cc1)NOC1CCN(C(=O)COc2ccc(Cl)cc2)C1 (centres unmarked) [Example 33, 2-(4-chlorophenoxy)-N-((1-(2-(4-chlorophenoxy)acetyl)pyrrolidin-3-yl)oxy)acetamide] | 101 to 1000
O=C(COc1ccc(Cl)cc1)NCC1(F)CCN(CCOc2ccc(Cl)cc2)C1 (centres unmarked) [Example 42, 2-(4-chlorophenoxy)-N-((1-(2-(4-chlorophenoxy)ethyl)-3-fluoropyrrolidin-3-yl)methyl)acetamide] | 101 to 1000
O=C(COc1ccc(Cl)cc1)NCC1(F)CCN(CCCOc2ccc(Cl)cc2)C1 (centres unmarked) [Example 60, 2-(4-chlorophenoxy)-N-((1-(3-(4-chlorophenoxy)propyl)-3-fluoropyrrolidin-3-yl)methyl)acetamide] | 101 to 1000
O=C(COc1ccc(Cl)cc1)NCC1CCN(C(=O)CCCc2ccc(Cl)cc2)C1 (centres unmarked) [Example 38, 2-(4-chlorophenoxy)-N-((1-(4-(4-chlorophenyl)butanoyl)pyrrolidin-3-yl)methyl)acetamide] | < 100
O=C(COc1ccc(Cl)cc1)NCC1CC(=O)N(CCOc2ccc(Cl)cc2)C1 (centres unmarked) [Example 3, 2-(4-chlorophenoxy)-N-((1-(2-(4-chlorophenoxy)ethyl)-5-oxopyrrolidin-3-yl)methyl)acetamide] | < 100
O=C(COc1ccc(Cl)cc1)NCCC1CCN(C(=O)COc2ccc(Cl)cc2)C1 (centres unmarked) [Example 16, 2-(4-chlorophenoxy)-N-(2-(1-(2-(4-chlorophenoxy)acetyl)pyrrolidin-3-yl)ethyl)acetamide] | 101 to 1000
O=C(COc1ccc(Cl)cc1)NCC1CCN(C(=O)COc2ccc(Cl)nc2)C1 (racemic) [Example 20, 2-(4-chlorophenoxy)-N-((1-(2-((6-chloropyridin-3-yl)oxy)acetyl)pyrrolidin-3-yl)methyl)acetamide] | 1000 to 10000
O=C(COc1ccc(Cl)cc1)NCC1CCN(C(=O)N2CCc3cc(Cl)ccc3C2)C1 (centres unmarked) [Example 24, N-((1-(6-chloro-1,2,3,4-tetrahydroisoquinoline-2-carbonyl)pyrrolidin-3-yl)methyl)-2-(4-chlorophenoxy)acetamide] | 101 to 1000
CC1CC(CNC(=O)COc2ccc(Cl)cc2)CN1C(=O)COc1ccc(Cl)cc1 (centres unmarked) [Example 39, 2-(4-chlorophenoxy)-N-((1-(2-(4-chlorophenoxy)acetyl)-5-methylpyrrolidin-3-yl)methyl)acetamide] | 101 to 1000
O=C(COc1ccc(Cl)cc1)NCC1CC(=O)N(CCCOc2ccc(Cl)cc2)C1 (centres unmarked) [Example 81, 2-(4-chlorophenoxy)-N-((1-(3-(4-chlorophenoxy)propyl)-5-oxopyrrolidin-3-yl)methyl)acetamide] | 101 to 1000
O=C(COc1ccc(Cl)cc1)NC[C@H]1CCN(CCCOc2ccc(Cl)cc2)C1 [Example 73, (R)-2-(4-chlorophenoxy)-N-((1-(3-(4-chlorophenoxy)propyl)pyrrolidin-3-yl)methyl)acetamide] | < 100

Other lines, results leading:

IC50 [nM] | SMILES
< 100 | CN(Cc1ccc(Cl)cc1)C(=O)N1CCC(CNC(=O)COc2ccc(Cl)cc2)C1 (centres unmarked) [Example 79, N-(4-chlorobenzyl)-3-((2-(4-chlorophenoxy)acetamido)methyl)-N-methylpyrrolidine-1-carboxamide]
< 100 | O=C(COc1ccc(C(F)(F)F)cc1)NCC1CCN(CCCOc2ccc(Cl)cc2)C1 (centres unmarked) [Example 45, N-((1-(3-(4-chlorophenoxy)propyl)pyrrolidin-3-yl)methyl)-2-(4-(trifluoromethyl)phenoxy)acetamide]
< 100 | O=C(COc1ccc(Cl)nc1)N[C@H]1[C@@H]2CN(CCCOc3ccc(Cl)cc3)C[C@@H]21 [Example 51, N-((1R,5S,6s)-3-(3-(4-chlorophenoxy)propyl)-3-azabicyclo[3.1.0]hexan-6-yl)-2-((6-chloropyridin-3-yl)oxy)acetamide]
101 to 1000 | O=C(COc1ccc(Cl)cc1)NCC1(F)CCN(C(=O)COc2ccc(Cl)cc2)C1 (centres unmarked) [Example 36, 2-(4-chlorophenoxy)-N-((1-(2-(4-chlorophenoxy)acetyl)-3-fluoropyrrolidin-3-yl)methyl)acetamide]
< 100 | O=C(COc1ccc(Cl)c(F)c1)NCC1CCN(CCCOc2ccc(Cl)cc2)C1 (centres unmarked) [Example 55, 2-(4-chloro-3-fluorophenoxy)-N-((1-(3-(4-chlorophenoxy)propyl)pyrrolidin-3-yl)methyl)acetamide]
< 100 | CC1(CNC(=O)COc2ccc(Cl)cc2)CCN(CCOc2ccc(Cl)cc2)C1 (centres unmarked) [Example 43, 2-(4-chlorophenoxy)-N-((1-(2-(4-chlorophenoxy)ethyl)-3-methylpyrrolidin-3-yl)methyl)acetamide]
101 to 1000 | Cc1cc(Cl)ccc1OCCCN1CCC(CNC(=O)COc2ccc(Cl)cc2)C1 (centres unmarked) [Example 67, N-((1-(3-(4-chloro-2-methylphenoxy)propyl)pyrrolidin-3-yl)methyl)-2-(4-chlorophenoxy)acetamide]
< 100 | O=C(COc1ccc(Cl)cc1)NCC1CCN(CCCOc2ccc(Cl)cn2)C1 (centres unmarked) [Example 69, 2-(4-chlorophenoxy)-N-((1-(3-((5-chloropyridin-2-yl)oxy)propyl)pyrrolidin-3-yl)methyl)acetamide]
< 100 | O=C(COc1ccc(Cl)cc1)NC1C[C@@H]2CN(C(=O)COc3ccc(Cl)cc3)CC12 (stereo in doubt) [Example 32, 2-(4-chlorophenoxy)-N-((1S,5R)-3-(2-(4-chlorophenoxy)acetyl)-3-azabicyclo[3.2.0]heptan-6-yl)acetamide]
< 100 | O=C(COc1ccc(Cl)cc1)NCC1CCN(C(=O)C2CC2c2ccc(Cl)cc2)C1 (centres unmarked) [Example 40, 2-(4-chlorophenoxy)-N-((1-(2-(4-chlorophenyl)cyclopropanecarbonyl)pyrrolidin-3-yl)methyl)acetamide]
< 100 | O=C(COc1ccc(Cl)cc1)NC1[C@H]2CN(C(CCOc3ccc(Cl)cc3)C(=O)O)C[C@@H]12 (stereo partly drawn) [Example 82, 4-(4-chlorophenoxy)-2-((1R,5S)-6-(2-(4-chlorophenoxy)acetamido)-3-azabicyclo[3.1.0]hexan-3-yl)butanoic acid hydrochloride]
< 100 | O=C(COc1ccc(Cl)cc1)N[C@H]1[C@@H]2CN(CCCOc3ccc(Cl)cc3)C[C@@H]21 [Example 28, 2-(4-chlorophenoxy)-N-((1R,5S,6s)-3-(3-(4-chlorophenoxy)propyl)-3-azabicyclo[3.1.0]hexan-6-yl)acetamide]
1000 to 10000 | O=C(COc1ccc(Cl)cc1)NCC1CCN(C(=O)COc2ccc(Cl)nc2)C1 (single isomer, unassigned) [Example 11, 2-(4-chlorophenoxy)-N-((1-(2-((6-chloropyridin-3-yl)oxy)acetyl)pyrrolidin-3-yl)methyl)acetamide]
< 100 | O=C(COc1ccc(Cl)cc1)NCC1CCN(CC(=O)Nc2ccc(Cl)cc2)C1 (centres unmarked) [Example 4, 2-(4-chlorophenoxy)-N-((1-(2-((4-chlorophenyl)amino)-2-oxoethyl)pyrrolidin-3-yl)methyl)acetamide]
< 100 | Cc1cc(OCC(=O)NCC2CCN(CCCOc3ccc(Cl)cc3)C2)ccc1Cl (centres unmarked) [Example 47, 2-(4-chloro-3-methylphenoxy)-N-((1-(3-(4-chlorophenoxy)propyl)pyrrolidin-3-yl)methyl)acetamide]
< 100 | O=C(COc1ccc(Cl)cc1)N[C@H]1[C@@H]2CN(CC(O)COc3ccc(Cl)cc3)C[C@@H]21 (stereo partly drawn) [Example 76, 2-(4-chlorophenoxy)-N-((1R,5S,6s)-3-(3-(4-chlorophenoxy)-2-hydroxypropyl)-3-azabicyclo[3.1.0]hexan-6-yl)acetamide]

Same assay, conditions: read-out: average ATF4 pathway inhibitory activity (IC50)

SMILES | IC50 [nM]
O=C(COc1ccc(Cl)cc1)NCC1CCN(CCOc2ccc(Cl)cc2)C1 (centres unmarked) [Example 2, 2-(4-chlorophenoxy)-N-((1-(2-(4-chlorophenoxy)ethyl)pyrrolidin-3-yl)methyl)acetamide] | < 100
